Results published in the NIST ThermoML archive (doi:10.1021/je101178u).
“And” between values parts separate entries of the source, which are not always exact repeats. Equal entries are not always repeated.

Settings: 307.15 K, Fluid (supercritical or subcritical phases); for mass density: Buoyancy - hydrostatic balance with magnetic suspension - one sinker; for viscosity: vibrating wire

CC [ethane]
Settings | mass density | viscosity
2134.4 kPa | 30.049 kg/m3 | 0.01007 mPa·s
2134.5 kPa | 30.051 kg/m3 | 0.01006 mPa·s
2653.6 kPa | 39.629 kg/m3 | 0.01038 mPa·s
2653.7 kPa | 39.631 kg/m3 | 0.01038 mPa·s
2674.2 kPa | 40.039 kg/m3 and 40.038 kg/m3 | 0.01034 mPa·s
2674.3 kPa | 40.04 kg/m3 | 0.01034 mPa·s
3138.1 kPa | 50.006 kg/m3 | 0.01066 mPa·s
3138.2 kPa | 50.008 kg/m3 | 0.01066 mPa·s
3138.4 kPa | 50.012 kg/m3 | 0.01066 mPa·s
3539.6 kPa | 60.147 kg/m3 | 0.01103 mPa·s
3539.8 kPa | 60.154 kg/m3 | 0.01103 mPa·s
3815.6 kPa | 68.316 kg/m3 | 0.01142 mPa·s
3821.7 kPa | 68.511 kg/m3 | 0.01143 mPa·s
3889 kPa | 70.711 kg/m3 | 0.01145 mPa·s
3892.4 kPa | 70.823 kg/m3 | 0.01146 mPa·s
4150.5 kPa | 80.267 kg/m3 | 0.01188 mPa·s
4151.6 kPa | 80.309 kg/m3 | 0.01189 mPa·s
4152 kPa | 80.328 kg/m3 | 0.01189 mPa·s
4152.4 kPa | 80.342 kg/m3 | 0.01189 mPa·s
4328.6 kPa | 88.031 kg/m3 | 0.01226 mPa·s
4329.5 kPa | 88.072 kg/m3 | 0.01226 mPa·s
4330.1 kPa | 88.099 kg/m3 | 0.01227 mPa·s
4330.4 kPa | 88.116 kg/m3 | 0.01226 mPa·s
4331.5 kPa | 88.167 kg/m3 | 0.01226 mPa·s
4514.6 kPa | 97.86 kg/m3 | 0.01277 mPa·s
4516.2 kPa | 97.954 kg/m3 | 0.01278 mPa·s
4517.4 kPa | 98.024 kg/m3 | 0.01279 mPa·s
4518.3 kPa | 98.079 kg/m3 | 0.01279 mPa·s
4519.2 kPa | 98.129 kg/m3 | 0.01279 mPa·s
4557.7 kPa | 100.499 kg/m3 | 0.01302 mPa·s
4558.1 kPa | 100.521 kg/m3 | 0.01302 mPa·s
4736.3 kPa | 113.82 kg/m3 | 0.01371 mPa·s
4736.7 kPa | 113.852 kg/m3 | 0.01371 mPa·s
4939.2 kPa | 140.104 kg/m3 | 0.01552 mPa·s
4939.3 kPa | 140.112 kg/m3 | 0.01552 mPa·s
5008.9 kPa | 160.457 kg/m3 and 160.473 kg/m3 | 0.01729 mPa·s
5019.4 kPa | 165.641 kg/m3 and 165.625 kg/m3 | 0.01766 mPa·s
5019.5 kPa | 165.654 kg/m3 | 0.01767 mPa·s
5042.9 kPa | 182.964 kg/m3 | 0.01932 mPa·s
5043 kPa | 183.065 kg/m3 and 183.021 kg/m3 | 0.01933 mPa·s and 0.01932 mPa·s
5050.1 kPa | 191.037 kg/m3 | 0.02022 mPa·s
5050.2 kPa | 191.169 kg/m3 | 0.02023 mPa·s
5051 kPa | 192.154 kg/m3 and 192.131 kg/m3 | 0.02026 mPa·s
5051.1 kPa | 192.228 kg/m3 and 192.185 kg/m3 | 0.02028 mPa·s
5058.7 kPa | 202.521 kg/m3 and 202.456 kg/m3 | 0.02133 mPa·s and 0.02132 mPa·s
5058.8 kPa | 202.654 kg/m3 and 202.599 kg/m3 and 202.583 kg/m3 | 0.02137 mPa·s and 0.02136 mPa·s and 0.02133 mPa·s
5060.1 kPa | 204.501 kg/m3 | 0.02168 mPa·s
5060.2 kPa | 204.534 kg/m3 and 204.598 kg/m3 | 0.02168 mPa·s
5060.3 kPa | 204.743 kg/m3 and 204.709 kg/m3 | 0.02159 mPa·s and 0.02158 mPa·s
5060.4 kPa | 204.805 kg/m3 | 0.02159 mPa·s
5062 kPa | 207.173 kg/m3 | 0.02199 mPa·s
5062.1 kPa | 207.31 kg/m3 | 0.02199 mPa·s
5062.2 kPa | 207.441 kg/m3 | 0.022 mPa·s
5064.1 kPa | 209.963 kg/m3 and 209.982 kg/m3 and 209.961 kg/m3 | 0.02215 mPa·s and 0.02216 mPa·s
5064.2 kPa | 210.139 kg/m3 and 210.11 kg/m3 | 0.02219 mPa·s
5065.4 kPa | 211.657 kg/m3 and 211.736 kg/m3 | 0.02255 mPa·s
5065.5 kPa | 211.805 kg/m3 | 0.02255 mPa·s
5105 kPa | 242.924 kg/m3 and 242.96 kg/m3 | 0.02579 mPa·s
5105.1 kPa | 243 kg/m3 | 0.02579 mPa·s
5105.2 kPa | 243.012 kg/m3 | 0.0258 mPa·s
5160.6 kPa | 259.321 kg/m3 | 0.02781 mPa·s
5160.9 kPa | 259.389 kg/m3 | 0.02781 mPa·s
5161 kPa | 259.401 kg/m3 and 259.396 kg/m3 | 0.02781 mPa·s and 0.0278 mPa·s
5187.1 kPa | 264.206 kg/m3 | 0.02852 mPa·s
5187.4 kPa | 264.252 kg/m3 | 0.02852 mPa·s
5187.6 kPa | 264.291 kg/m3 | 0.02852 mPa·s
5348.1 kPa | 282.102 kg/m3 | –
